Results from a melting point compilation (Tetko et al.; mined from patent text by program, amines drawn as free bases though some values may be those of a salt).

| melting point | SMILES |
| --- | --- |
| 78 to 79 °C | Cc1cccc(C(C)(C)O)c1N |
| 325 to 326 °C | O=C(Nc1cccc2c(=O)cc(C(=O)O)oc12)c1ccc2c(c1)CCC(CCCc1ccccc1)O2 (stereo not given) |
| 176 to 181 °C | COc1cc(Nc2c(C#N)cnc3cc(-c4ccc(CN5CCN(CCO)CC5)o4)ccc23)c(Cl)cc1Cl |
| 128 to 131 °C | CC(C)c1nc2cc(COc3ccc(CC4SC(=O)NC4=O)cc3)ccc2o1 (stereo not given) |
| 66.8 °C | Clc1ccc2c(c1)CSc1ccccc1O2 |
| 178 to 179 °C | CC1Cn2c(nc3c(cnn3C)c2=O)S1 (stereo not given) |
| 169 to 171 °C | Cn1cc(CCl)c(=O)c2ccc(F)cc21 |
| 115 to 116 °C | Brc1ccc2c3c(cccc13)C(NCCCCCCCCCCn1ccnc1)=N2 |
| 134 to 135 °C | COCCN1C(=O)CCCc2cc(N)ccc21 |
| 240 to 242 °C | O=C1c2ccccc2C(=O)c2c(NCCc3ccc(O)cc3)ccc(NCCc3ccc(O)cc3)c21 |
| 130 to 132 °C | COc1cc2c(cc1OC)N(C(=O)c1ccc(-c3ccccc3C(F)(F)F)c(C)c1)Cc1ccc(C(=O)N(CCO)CCO)n1C2 |
| 30 to 31 °C | CCOc1ccnc(Cl)n1 |
| 134 °C | CCCCc1nc2ccnc(Cl)c2n1Cc1ccc(-c2ccccc2C#N)cc1 |
| 195 to 196 °C | CCCn1c2cc(OC)ccc2c2oc(C(=O)Cl)cc21 |
| 125 to 127 °C | C=CCn1c(SCc2cnn(-c3c(Cl)cc(C(F)(F)F)cc3Cl)n2)nc(C#N)c1C#N |
| 277 to 278 °C | COc1ccc2c(Cl)cc3nc(C(=O)O)cn3c2c1 |
| 172 to 173 °C | Cc1ccc2c(c1)CC(=O)N2c1c(F)cc(F)c(F)c1F |
| 107 °C | CCCOc1cccc(-c2ccnc(Nc3cc(OC)c(OC)c(OC)c3)n2)c1 |
| 177 to 178 °C | CCCCc1cc(O)n2nccc2n1 |
| 144 to 145 °C | COC(=O)c1cc(C=NO)cc([N+](=O)[O-])c1 |
| 66 to 67 °C | COc1cc(C)nc(-c2ccc(C)cc2)n1 |
| 90 °C | Brc1ccc2c(ccn2Cc2ccccc2)c1 |
| 252 to 253 °C | CCOC(=O)c1cn(CC)c2nc3ccccc3n2c1=O |
| 101 to 106 °C | O=c1c2ccccc2n(CCCCCl)c2ccc(Cl)cc12 |

| melting point | SMILES |
| --- | --- |
| 163 to 165 °C | O=C(c1ccccc1)c1cccc2c1OCC2C(=O)O (stereo not given) |
| 149 to 152 °C | COCc1c(C=C(Br)Br)ncc2c1c1c(OCc3ccccc3)cccc1n2S(=O)(=O)c1ccc(C)cc1 |
| 242 to 243 °C | O=c1oc(-c2ccccc2)cc(O)c1Sc1cccc2ccccc12 |
| 209 °C | O=C1c2ccc(OCCO)cc2C(=O)c2cc3ccccc3cc21 |
| 125 to 126 °C | COC1=C(OC)C(=O)c2cc(Cl)ccc2C1=O |
| 111 to 114 °C | Fc1ccc(C(c2ccc(OCc3ccccc3)cc2)C(c2ccccc2)C(F)(F)F)cc1 (stereo not given) |
| 176 to 177 °C | CSc1ccccc1CNc1ncnc2c1sc1nc(N3CCCC3)c3c(c12)CC(C)(C)OC3 |
| 194 °C | Fc1ccc(-c2nn3cccnc3c2-c2ccncc2)cc1 |
| 75 °C | CCc1ccc(/C(Cl)=C/c2ccc(Br)cc2)cc1 |
| 88 to 90 °C | COC(=O)[C@@H]1OC(c2ccc(O)c(OC)c2)O[C@H]1C(=O)OC |
| 273 to 276 °C | C(=C\c1cc(/C=C/c2ccc3cc[nH]c3c2)n[nH]1)/c1ccc(-c2ccccc2)cc1 |
| 168 to 169 °C | CON(c1ccc([N+](=O)[O-])cc1Cl)S(=O)(=O)c1cccc([N+](=O)[O-])c1 |
| 55.5 to 56.5 °C | CC(C)(C)OC(=O)NCc1ccccc1 |
| 169 to 172 °C | COc1cc(/C=C/C=C/C(=O)NCCN2CCC(c3c[nH]c4ccccc34)CC2)cc(OC)c1OC(C)=O |
| 90 to 92 °C | COc1cc(/C=C/C(=O)Nc2ccccc2C(=O)O)ccc1OC1CCCCC1 |
| 195 to 197 °C | O=C(Nc1cccc(Cl)c1)c1nc(-c2ccccc2)c2ccccc2c1O |
| 202 °C | COc1ccc(CS(=O)CC(=O)NO)cc1OC (stereo not given) |
| 133 to 135 °C | COc1ccc2cc(C=O)ccc2c1Br |
| 179 to 187 °C | O=C(O)c1cc(Br)nc(Br)c1 |
| 55 to 56 °C | COc1ccc(C(C)(C)C)c(O)c1-c1nc2cc(S(=O)(=O)C(F)(F)F)ccc2[nH]1 |
| 124 to 126 °C | CC(C)C(N)C(O)COc1ccccc1C1=NNC(=O)CC1 (stereo not given) |
| 64 to 65 °C | CC(=O)N[C@@H]1[C@H](O)CC(C(=O)O)=C[C@H]1OC(C)C |
| 108 to 110 °C | O=S(=O)(NCc1ccc(Br)cc1)c1ccccc1Br |
| 239 to 241 °C | Brc1ncnn1C(c1ccccc1)(c1ccccc1)c1ccccc1 |

| melting point | SMILES |
| --- | --- |
| 132 to 134 °C | COc1ccc(F)cc1C(C)(C)CC(O)(CN1CC(=O)N(C)c2ccccc21)C(F)(F)F (stereo not given) |
| 141 to 142 °C | COc1ccc2c(C)c(CCO)c(=O)oc2c1 |
| 128 to 129 °C | O=C(C1CC1)N1CC[C@H](c2ccccc2)[C@H](O)C1 (relative stereo) |
| 77 to 81 °C | CCCOc1cc(CCCOc2nn(C)cc2CC(=O)O)n(Cc2ccc(Cl)cc2Cl)n1 |
| 94 to 96 °C | CCOC(=O)NN=C(C)c1cccc(C(F)(F)F)c1 |
| 138 to 140 °C | CCC(CC)Oc1cc(C)nc2c1CCC(=O)N2c1c(C)cc(C)cc1C |
| 64 to 66 °C | COc1cc(C(=O)N2CCC(CCOS(C)(=O)=O)(c3ccc(Cl)c(Cl)c3)C2)cc(OC)c1OC (stereo not given) |
| 166 °C | COC(=O)[C@H](CCCCNC(=O)c1csc(NC(=O)NCc2ccccc2)n1)NC(=O)OC(C)(C)C |
| 206 to 208 °C | CC(=O)c1oc2ccccc2c1NC(=O)/C(C#N)=C(/C)O |
| 240 to 241 °C | O=C(Nc1c[nH]nc1C(=O)NC1CCCC1)c1ccccn1 |
| 148 to 150 °C | OCC1OC(n2cnc3c(Cl)cc(Cl)nc32)C(O)C1O (stereo not given) |
| 137 °C | CSCCC(=N)Nc1cn(-c2cccnc2)nc1Cl |
| 185 to 187 °C | Cc1ccnc(Nc2nc(-c3ccc(-c4ccccn4)s3)cs2)c1 |
| 145 °C | O=C(c1ccc([N+](=O)[O-])cc1)N1CCc2cc(S(=O)(=O)N3CC(c4ccccc4)NC3=O)ccc21 (stereo not given) |
| 139 to 141 °C | CC(C)OCc1nc(N)c2nccnc2n1 |
| 266 to 269 °C | Cn1c(=O)c2c(-c3nc(C4CC4)no3)ncn2c2cccnc21 |
| 153 to 154 °C | CC(C)OC(=O)C1=C2SCC(=CC(=O)Sc3ccccc3)N2CC1C (stereo not given) |
| 106 to 107 °C | CCOC(=O)c1cc2cccc(NS(=O)(=O)c3ccccc3OC)c2n1COC |
| 145 to 147 °C | CC(C)c1n[nH]c2c(NCc3ccccc3)nc(NCCN)nc12 |
| 174 to 176 °C | COC(=O)c1sc2cc(O)ccc2c1C |
| 99 to 101 °C | Cc1cccc(C)c1N1CC(C)N(c2c(C)cccc2C)C1=N (single isomer, unassigned; (+)) |
| 139 to 141 °C | COc1ccc(COC(=O)NC(CO)Cc2ccc(O)cc2)cc1 (stereo not given) |
| 120 °C | O=C(O)c1ccc(CNC(=O)C2Cc3ccccc3N2S(=O)(=O)c2ccc(-c3cccc(C(F)(F)F)c3)cc2)cc1 (stereo not given) |
| 74 to 75 °C | COC(=O)CCc1cnoc1-c1ccc(Cl)c(Cl)c1 |

| melting point | SMILES |
| --- | --- |
| 134 to 138 °C | Cc1ccc(CC2(O)CCN(C(C)C(=O)Nc3ccc(O[Si](C)(C)C(C)(C)C)cc3)CC2)cc1 (racemic) |
| 235 to 236 °C | Cc1cn(-c2cc(NC(=O)c3ccc(C)c(Nc4nccc(-c5cccnc5)n4)c3)cc(C(F)(F)F)c2)cn1 |
| 52 °C | FC(F)(F)c1ccc2sc(CCl)nc2c1 |
| 225 to 227 °C | CNS(=O)(=O)c1ccc(-c2cnc3[nH]c(CCc4cc(OC)ccn4)nc3c2)cc1 |
| 132 °C | Nc1cc(=O)n(Cc2cccc(Cl)c2)[nH]1 |
| 195 to 197 °C | CCCCc1oc2ccccc2c1-c1ncc(-c2ccc3cc(OCc4ccc(C(=O)OC)cc4C(=O)OC)ccc3c2)o1 |
| 56 to 59 °C | CCOC(=O)COc1ccc(C=O)cc1OC |
| 289 to 290 °C | COc1cccc(/C=C/c2nc3c([nH]2)c(=O)n(C)c(=O)n3C)c1OC |
| 164 °C | O=C1OCc2c1oc1c(F)cccc1c2=O |
| 108 to 110 °C | Cc1ccccc1C(C(=O)N[C@H]1CCN(CCc2ccc(F)cc2)C1)c1ccccc1C |
| 86 to 90 °C | O=C1C[C@H](NC(=O)[C@H]2CCCN2C(=O)c2nc(CCCc3ccc(O)cc3)c[nH]2)[C@@H](OCc2ccccc2)O1 |
| 168 to 169 °C | CC(C)n1c(=O)c(C(=O)O)cc2ccccc21 |
| 115 to 121 °C | CNC(COc1ccc(C2C(=O)Oc3c2cc(C(C)(C)C)cc3C(C)(C)C)cc1)C(=O)O (stereo not given) |
| 218 °C | COc1ccc(CNc2nc(CCC(=O)O)nc3sc4ccccc4c23)cc1Cl |
| 88 to 90 °C | OCCc1ccc(Nc2ncc3c(n2)-c2ccccc2C(c2cccc(Br)c2)C3)cc1 (stereo not given) |
| 147 to 148 °C | CC(=O)c1c[nH]c(CO)n1 |
| 270 to 271 °C | NS(=O)(=O)c1cc2cc(O)cnc2s1 |
| 240 to 242 °C | CCOc1ccc(-c2nc(-c3cccc(C(C#N)C(=O)OC)n3)cs2)cc1OCC (stereo not given) |
| 134 to 135 °C | CCOC(=O)c1cnn(C)c1O |
| 167 to 168 °C | O=Cc1ccc(OC[C@H]2CCCN2c2ncnc3[nH]cnc23)c2ccccc12 |
| 154 to 157 °C | O=C(Cn1c(-c2cc([N+](=O)[O-])cc([N+](=O)[O-])c2)ncc(NC(=O)OCc2ccccc2)c1=O)NC(Cc1ccccc1)C(=O)C(F)(F)F (stereo not given) |
| 138 to 139 °C | CC1=CC(O)C(O)C(C)(C)CC1O (stereo not given) |
| 118 °C | O=S(=O)(N=CN(CCO)CCO)c1cc(Br)cc(Br)c1 |
| 166 to 167 °C | COc1cc(CN2CCN(c3ccc(O)cc3)CC2)nc(-c2ccccc2)n1 |

| SMILES | melting point |
| --- | --- |
| CCCCCCSC1c2cccc(O)c2C(=O)c2c(O)cccc21 | 49 to 50 °C |
| C[C@H]1CN(c2ccc([N+](=O)[O-])cc2)[C@@H](C)CN1 (relative stereo) | 93 to 94 °C |
| N#CC(Br)(Br)c1ccccn1 | 59 to 61 °C |
| Cc1cc(C2=NOC(c3cc(Cl)cc(Cl)c3)(C(F)(F)F)C2)ccc1C(=O)NC1CSSC1 (stereo not given) | 73 °C |
